The results in this text go back to patent publication US20100081719A1 (priority 2006, published 2010).

Structures can show the parent of a compound that is named as a salt.

The test system of this experiment is patients who meet the 1990 ACR criteria for fibromyalgia syndrome. The experiment in a line: Multicenter, double-blind, randomized, placebo-controlled monotherapy study of milnacipran for treatment of fibromyalgia (Example 2). Format: in vivo, human. The conditions noted are these: 3-month treatment period (LOCF), intent-to-treat; for MFI total score, Change from baseline, Difference from Placebo / MFI total score, Change from baseline, LS Mean (SE): ANCOVA. As to the method: This was a multicenter, randomized, double-blind, placebo-controlled three-arm study designed which enrolled 1196 patients who meet the 1990 ACR criteria for fibromyalgia syndrome (history of widespread pain and pain in 11 of 18 tender point sites on digital palpation), as well as the more detailed admission criteria outlined in the protocol.
All randomized medications (placebo and milnacipran) were administered twice a day (BID).
(i) Primary Efficacy Assessments: Patient Global Impression of Change (PGIC) administered to patients at visits Tx3, Tx7, Tx11 and Tx15/ET; Physical Component summary of SF-36 (SF-36 PCS) administered to patients at visits BL2/Tx0, Tx3, Tx7, Tx11 and Tx15/ET; (ii) Secondary Efficacy Assessments: Time weighted average (AUC) of weekly average PED morning recall pain score; PGIC and SF-36 PCS administered to patients at visits Tx3 to Tx15.
(iii) Additional Efficacy Measurements: The Fibromyalgia Impact Questionnaire (FIQ) total score and physical function, Beck Depression Inventory (BDI), the MOS-Sleep Index Scale, the Arizona Sexual Experiences Scale (ASEX), Patient pain 24 hour and 7 day recall VAS, the SF-36 individual domains, Patient Global Disease Status, Patient Global Therapeutic Benefit, the Multiple Ability Self-report Questionnaire (MASQ, cognitive function), the Multidimensional Health Assessment Questionnaire (MDHAQ), Multidimensional Fatigue Inventory (MFI), and diary assessments including current pain (morning, random daily, and evening reports); overall pain past week (weekly report), overall fatigue in the last week (weekly report), and the extent that pain kept the patient from caring for themselves (weekly report).

Regarding `CCN(CC)C(=O)C1(c2ccccc2)CC1CN` (racemic) [milnacipran, Z-2-aminomethyl-1-phenyl-N, N-diethylcyclopropanecarboxamide hydrochloride], where the note is “100 mg milnacipran”, the “MFI total score, Actual, Mean” value was found to be 63.00; the “MFI total score, Actual, Median” value is recorded as 64.0; the “MFI total score, Change from baseline, Mean” value is recorded as −5.39; the “MFI total score, Change from baseline, Median” value was −4.0. For the setting “100 mg milnacipran”, the “MFI total score, Change from baseline, Difference from Placebo” value is recorded as −1.80 and the “MFI total score, Change from baseline, LS Mean (SE)” value was −5.47 (0.792). Further, where the note is “200 mg milnacipran”, the “MFI total score, Actual, Mean” value came to 64.15; the “MFI total score, Actual, Median” value was found to be 65.0; the “MFI total score, Change from baseline, Mean” value was −5.39; the “MFI total score, Change from baseline, Median” value is −4.0. Moreover, under “200 mg milnacipran”, the “MFI total score, Change from baseline, Difference from Placebo” value was −1.55 and the “MFI total score, Change from baseline, LS Mean (SE)” value is given as −5.63 (0.787).
